This passage reports Ki and IC50 results from patent publication US20250059182A1, “SOS1 INHIBITORS” (Mirati Therapeutics, Inc., priority 2021, published 2025).

Where a name gives a salt, the structure may show the parent alone. Read-outs that look alike come from different tables or passages of the source.

The target of assay [1] is T1, recombinant human SOS1 polypeptide (amino acids 560-1049) (Homo sapiens, UniProt Q07889).
T1 construct: corresponding to amino acids 560-1049, expressed in E. Coli; made in house; host or cells: E. coli
T1 sequence (Q07889 560-1049): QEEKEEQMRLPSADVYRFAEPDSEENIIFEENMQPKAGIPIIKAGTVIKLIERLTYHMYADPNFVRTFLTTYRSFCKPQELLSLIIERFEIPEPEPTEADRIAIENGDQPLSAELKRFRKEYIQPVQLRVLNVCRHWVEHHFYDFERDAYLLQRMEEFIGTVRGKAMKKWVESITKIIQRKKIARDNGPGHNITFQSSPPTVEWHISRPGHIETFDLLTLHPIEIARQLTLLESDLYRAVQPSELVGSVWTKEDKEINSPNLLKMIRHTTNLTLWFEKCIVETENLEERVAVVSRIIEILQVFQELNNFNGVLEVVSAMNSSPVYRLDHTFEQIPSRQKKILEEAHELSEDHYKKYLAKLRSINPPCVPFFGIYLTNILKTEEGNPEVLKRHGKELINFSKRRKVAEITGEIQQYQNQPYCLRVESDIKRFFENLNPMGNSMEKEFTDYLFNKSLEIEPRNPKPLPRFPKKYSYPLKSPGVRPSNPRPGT
Nature of the assay: HTRF displacement assay: inhibition of labeled tracer binding to SOS1.
Method: The ability of a compound of Formula (I) to bind to SOS1 was measured using a HTRF displacement assay. […] After a 1-hour incubation at room temperature, the HTRF signal was measured using Clairostar plate reader (BMG Labtech) according to the manufacturer's instructions. Excitation filter EX-TR was used, and emission 1 was detected at 650-610 nm and emission 2 detected at 620-610 nm. The HTRF ratio was calculated using the formula: [emission 1/emission 2]*10000.
Background signals were calculated from well with a 10 μM inhibitor, known to inhibit 100% at that concentration. The background subtracted signals were converted to % binding relative to DMSO controls. Data were analyzed using XLFIT software (IDBS) using a Morrison equation for competitive binding and Ki's were generated compound of Formula (I).

The subject of another assay is pERK in MKN1 cells. Nature of the assay: pERK inhibition, In-Cell Western (LI-COR Odyssey), MKN1 cells. The following applies: Homo sapiens. The format is cell-based. On the procedure:
This Example illustrates that exemplary compounds of the present invention prevent KRas-mediated GTP nucleotide exchange mediated by SOS1 to inhibit KRas activity thereby inhibiting the generation of the downstream effector pERK.
MKN1 cells (15,000/w) or H358 (30,000/w) were seeded in a black clear flat bottom 96-well cell culture plate (Corning, #3904) and incubated at 37° C. overnight. Assay day 1, cells were dosed with compounds of Formula (I) with a 10 μm starting concentration and serially diluted 3× for a total of 9 concentrations. The cells were incubated for approximately 0.5-1 hour with the compounds solubilized in DMSO at 37° C. Cells were immediately fixed by adding 50 μL of 4% formaldehyde to all wells in a fume hood and the plates were incubated for 20 minutes at room temperature. The formaldehyde was discarded from the plates and 150 μL of ice-cold methanol was added to permeabilize the cells for 10 minutes at −20° C. The methanol was discarded from each of the plates and any liquid remaining in the plate by tapping the plate against paper towels. Cells were then blocked with 150 μL of Odyssey blocking buffer (LI-COR Biosciences #927-50010) using 0.05% Tween for 1 hour at room temperature on a shaker. The blocking buffer was discarded and 50 μL of primary antibodies pERK (cell signaling Technology #9101L; Rabbit, 1:500) and GapDH (Millipore #MAB34; Mouse, 1:5000) diluted in Odyssey blocking buffer was added. The plates were incubated overnight at 4° C. on a shaker.
On Assay day 2, the primary antibody solution was removed. Each plate was washed 3× times with 150 μL of 1×PBST (PBS+0.1% Tween 20) and incubated with 50 μL of secondary antibodies: Anti-Rabbit (LI-COR Biosciences #926-32211) and Anti-Mouse (LI-COR Biosciences #68070) at 1:800 dilution in Odyssey blocking buffer with Tween at room temperature on a shaker for 2 hours (protected from light). The secondary antibody solution as removed and each plate was washed with PBST 3× times. Any liquid remaining was discarded and the plate was imaged using the Licor Odyssey machine according to the manufacturer's instruction, using a set focus length at 3 mm and both 800 nm and 700 nm filters. The GAPDH normalized scan values for each well were divided by the average of vehicle wells to get the % of pERK inhibition. The IC50 values were then calculated with the Graph pad Prism software.

Where [2] appears, read: Table A, Morrison equation for competitive binding.
The mark [3] stands for this setting: MKN-1, Table B, MKN1 or H358 cells (table does not say which), 0.5-1 hour incubation, read-out: IC50 (nM), pERK inhibition.
The mark [4] stands for this setting: MKN-1, Table B1, MKN1 or H358 cells (table does not say which), 0.5-1 hour incubation, read-out: IC50 (nM), pERK inhibition.
The mark [5] stands for this setting: Table A1, Morrison equation for competitive binding.
[6] abbreviates: MKN-1, read-out: IC50 (nM), pERK inhibition.

In general, Ki refers to the equilibrium dissociation constant of an inhibitor or competing ligand from its target. One may read the IC50 as the concentration needed to halve the response being measured.

Regarding `Cc1c(C#N)cccc1[C@@H](C)Nc1nnc(C)c2cnc(N3C[C@H]4CCCN[C@H]4C3)cc12` (single isomer, unassigned) [Example 6-3], in assay [1] (setting [2]), the Ki turned out to be 0.992 nM. Moreover, the IC50 with pERK in MKN1 cells (setting [3]) was determined as 73 nM. Taken in the same sequence, the figures for `Cc1c(C#N)cccc1[C@@H](C)Nc1nnc(C)c2cnc(N3C[C@@H]4CCCN[C@@H]4C3)cc12` (single isomer, unassigned) [Example 6-4] were 2.74 nM and 194 nM.

`Cc1c(C#N)cccc1[C@@H](C)Nc1nnc(C)c2cnc(N3C[C@H]4CCCN(C)[C@H]4C3)cc12` (single isomer, unassigned) [Example 6-5]: the Ki in assay [1] (setting [2]) was 1.12 nM. For the same compound, in the assay with pERK in MKN1 cells (setting [3]), the IC50 is 85.2 nM. Regarding `Cc1nnc(N[C@H](C)c2ccc(C#N)cc2F)c2cc(N3CCN(C)CC3)ncc12` [Example 1-98, (R)-3-fluoro-4-(1-((4-methyl-7-(4-methylpiperazin-1-yl)pyrido[3,4-d]pyridazin-1-yl)amino)ethyl)benzonitrile], the 50% inhibitory concentration (IC50) with pERK in MKN1 cells (setting [3]) worked out at 186 nM. Same read-out and setting: the result for `Cc1c(C#N)cccc1[C@@H](C)Nc1nnc(C)c2cc(F)c(N3CC(C)(N(C)C)C3)cc12` [Example 4-8, (R)-3-(1-((7-(3-(dimethylamino)-3-methylazetidin-1-yl)-6-fluoro-4-methylphthalazin-1-yl)amino)ethyl)-2-methylbenzonitrile] reads 109 nM; that for `Cc1c(C#N)cccc1[C@@H](C)Nc1nnc(C)c2cc(F)c(N3CCOCC3)cc12` [Example 4-12, (R)-3-(1-((6-fluoro-4-methyl-7-morpholinophthalazin-1-yl)amino)ethyl)-2-methylbenzonitrile], 120 nM. Take `Cc1nnc(N[C@H](C)c2cccc(C(F)F)c2F)c2cc(N3CCN(C)CC3)c(F)cc12` [Example 4-20, (R)-N-(1-(3-(difluoromethyl)-2-fluorophenyl)ethyl)-6-fluoro-4-methyl-7-(4-methylpiperazin-1-yl)phthalazin-1-amine]: the inhibition constant (Ki) in assay [1] (setting [2]) is 0.547 nM. With `COc1cc2c(C)nnc(N[C@H](C)c3cccc(C#N)c3C)c2cc1O[C@H]1CCOC1` [Example 6-15, 3-((R)-1-((6-methoxy-4-methyl-7-(((S)-tetrahydrofuran-3-yl)oxy)phthalazin-1-yl)amino)ethyl)-2-methylbenzonitrile], the IC50 with pERK in MKN1 cells (setting [3]) turned out to be 165 nM.

For `Cc1nnc(N[C@H](C)c2cccc(C(C)(F)F)c2F)c2cc(N3CCN(C)CC3)c(C#N)cc12` [Example 6-21, (R)-1-((1-(3-(1,1-difluoroethyl)-2-fluorophenyl)ethyl)amino)-4-methyl-7-(4-methylpiperazin-1-yl)phthalazine-6-carbonitrile], in assay [1] (setting [2]), the inhibitory constant (Ki) turned out to be 1.05 nM. The same measure, in the same setting: the result for `Cc1nnc(N[C@H](C)c2cccc(C(F)F)c2F)c2cc(N3CCN(C)CC3)c(C#N)cc12` [Example 6-22, (R)-1-((1-(3-(difluoromethyl)-2-fluorophenyl)ethyl)amino)-4-methyl-7-(4-methylpiperazin-1-yl)phthalazine-6-carbonitrile] reads 1.49 nM; that for `Cc1c(C#N)cccc1[C@@H](C)Nc1nnc(C)c2cc(Br)c(N3CCN(C)CC3)cc12` [Example 8-1, (R)-3-(1-((6-bromo-4-methyl-7-(4-methylpiperazin-1-yl)phthalazin-1-yl)amino)ethyl)-2-methylbenzonitrile], 2.4 nM. As to `Cc1c(C#N)cccc1[C@@H](C)Nc1nnc(C)c2cnc(N3CCc4nn(C)cc4C3)cc12` [Example P-51, (R)-2-methyl-3-(1-((4-methyl-7-(2-methyl-2,4,6,7-tetrahydro-5H-pyrazolo[4,3-c]pyridin-5-yl)pyrido[3,4-d]pyridazin-1-yl)amino)ethyl)benzonitrile], in the assay on pERK in MKN1 cells (setting [4]), the IC50 turned out to be 120 nM.

As to `Cc1c(C#N)cccc1[C@@H](C)Nc1nnc(C)c2c(C)nc(N3CCN(C)CC3)cc12` [Example P-189, (R)-3-(1-((4,5-dimethyl-7-(4-methylpiperazin-1-yl)pyrido[3,4-d]pyridazin-1-yl)amino)ethyl)-2-methylbenzonitrile], the IC50 in the assay on pERK in MKN1 cells (setting [4]) worked out at 57 nM. With `Cc1c(C#N)cccc1[C@@H](C)Nc1nnc(CO)c2cnc(N3CCOCC3)cc12` [Example P-201, (R)-3-(1-((4-(hydroxymethyl)-7-morpholinopyrido[3,4-d]pyridazin-1-yl)amino)ethyl)-2-methylbenzonitrile formic acid salt], in assay [1] (setting [5]), the Ki came out at 6.36 nM. Turning to `Cc1c(C#N)cccc1[C@@H](C)Nc1nnc(C=O)c2cnc(N3CCOCC3)cc12` [Example P-202, (R)-3-(1-((4-formyl-7-morpholinopyrido[3,4-d]pyridazin-1-yl)amino)ethyl)-2-methylbenzonitrile], in assay [1] (setting [5]), the inhibition constant Ki came to 49.7 nM. On the same count and under the same terms, with `Cc1c(C#N)cccc1[C@@H](C)Nc1nnc(C)c2cnc(N3CCOC(=O)C3)cc12` [Example P-203, (R)-2-methyl-3-(1-((4-methyl-7-(2-oxomorpholino)pyrido[3,4-d]pyridazin-1-yl)amino)ethyl)benzonitrile] the figure was 26.1 nM; with `Cc1c(C#N)cccc1[C@@H](C)Nc1nnc(C)c2cnc(N3CCOCC3=O)cc12` [Example P-204, (R)-2-methyl-3-(1-((4-methyl-7-(3-oxomorpholino)pyrido[3,4-d]pyridazin-1-yl)amino)ethyl)benzonitrile], 139 nM; with `Cc1c(C#N)cccc1[C@@H](C)Nc1nnc(C)c2cnc(OCCOCCN3C(=O)CCC(N4C(=O)c5cccc(O)c5C4=O)C3=O)cc12` (stereo partly drawn) [Example P-207, 3-((1R)-1-((7-(2-(2-(3-(4-hydroxy-1,3-dioxoisoindolin-2-yl)-2,6-dioxopiperidin-1-yl)ethoxy)ethoxy)-4-methylpyrido[3,4-d]pyridazin-1-yl)amino)ethyl)-2-methylbenzonitrile], 865 nM. Turning to `Cc1c(C#N)cccc1[C@@H](C)Nc1nnc(C)c2cnc(OCCOCCOc3cccc4c3C(=O)N(C3CCC(=O)NC3=O)C4=O)cc12` (stereo partly drawn) [Example P-208, 3-((1R)-1-((7-(2-(2-((2-(2,6-dioxopiperidin-3-yl)-1,3-dioxoisoindolin-4-yl)oxy)ethoxy)ethoxy)-4-methylpyrido[3,4-d]pyridazin-1-yl)amino)ethyl)-2-methylbenzonitrile], the Ki in assay [1] (setting [5]) was 427 nM. Still for that read-out and setting: the result for `Cc1c(C#N)cccc1[C@@H](C)Nc1nnc(C)c2cnc(OCCNC(=O)CCOC34CC5CC(CC(C5)C3)C4)cc12` [Example P-209, 3-(((3s,5s, 7s)-adamantan-1-yl)oxy)-N-(2-((1-(((R)-1-(3-cyano-2-methylphenyl)ethyl)amino)-4-methylpyrido[3,4-d]pyridazin-7-yl)oxy)ethyl)propanamide] reads 542 nM. In the case of `COc1cc2cnnc(N[C@H](C)c3cccc4ccccc34)c2cc1OC` [Example P-210, (R)-6,7-dimethoxy-N-(1-(naphthalen-1-yl)ethyl)phthalazin-1-amine formic acid salt], the IC50 in the assay on pERK in MKN1 cells (setting [6]) is over 10000 nM. On the same count and under the same terms, with `Cc1c(Br)cccc1[C@@H](C)Nc1nnc(C)c2cnc(N3CCOCC3)cc12` [Example P-213, (R)-N-(1-(3-bromo-2-methylphenyl)ethyl)-4-methyl-7-morpholinopyrido[3,4-d]pyridazin-1-amine formic acid salt] the figure was 114 nM. Consider `Cc1c(C#N)cccc1[C@@H](C)Nc1nnc(C)c2cnc(N3CCC34CN(CCCF)C4)cc12` [Example P-228, (R)-3-(1-((7-(6-(3-fluoropropyl)-1,6-diazaspiro[3.3]heptan-1-yl)-4-methylpyrido[3,4-d]pyridazin-1-yl)amino)ethyl)-2-methylbenzonitrile], for which the 50% inhibitory concentration (IC50) with pERK in MKN1 cells (setting [4]) turned out to be 68.4 nM.
